According to patent publication US9469650B2, “Melampomagnolide B derivatives” (BOARD OF TRUSTEES OF THE UNIVERSITY OF ARKANSAS, priority 2013, dated 2016):

What was measured:
MOLT-4 = experiment: panel of 60 human tumor cell lines, growth inhibition (Leukemia); conditions: Homo sapiens
LOX IMVI = experiment: panel of 60 human tumor cell lines, growth inhibition (Melanoma); conditions: Homo sapiens
M14 = experiment: as above; conditions: Homo sapiens
SK-MEL-2 = experiment: as above; conditions: Homo sapiens
SK-MEL-28 = experiment: as above; conditions: Homo sapiens
SK-MEL-5 = experiment: as above; conditions: Homo sapiens
SNB-75 = experiment: panel of 60 human tumor cell lines, growth inhibition (CNS Cancer); conditions: Homo sapiens
HCT-116 = experiment: panel of 60 human tumor cell lines, growth inhibition (Colon Cancer); conditions: Homo sapiens
SW-620 = experiment: as above; conditions: Homo sapiens
CAKI-1 = experiment: panel of 60 human tumor cell lines, growth inhibition (Renal Cancer); conditions: Homo sapiens
SN12C = experiment: as above; conditions: Homo sapiens
UO-31 = experiment: as above; conditions: Homo sapiens
MCF7 = experiment: panel of 60 human tumor cell lines, growth inhibition (Breast Cancer); conditions: Homo sapiens
MDA-MB-231/ATCC = experiment: as above; conditions: Homo sapiens
T-47D = experiment: as above; conditions: Homo sapiens, T47D
OVCAR-3 = experiment: panel of 60 human tumor cell lines, growth inhibition (Ovarian Cancer)
NCI/ADR-RES = experiment: as above; conditions: Homo sapiens
PC-3 = experiment: panel of 60 human tumor cell lines, growth inhibition (Prostate Cancer); conditions: Homo sapiens
A549/ATCC = experiment: panel of 60 human tumor cell lines, growth inhibition (Non-Small Cell Lung Cancer); conditions: Homo sapiens, A549, read-out: LC50

## C=C1C(=O)O[C@H]2[C@H]1CC/C(COC(=O)OCCCN1CCCCC1)=C\CC[C@@]1(C)O[C@@H]21 [JVM 2-26]
MOLT-4; MOLT-4
  GI50: 4.07 µM
MOLT-4; MOLT-4, read-out: LC50
  CC50: 98.7 µM
MOLT-4; MOLT-4, read-out: TGI
  IC (TGI): 10.4 µM
LOX IMVI
  GI50: 3.15 µM
LOX IMVI; read-out: LC50
  CC50: 37.8 µM
LOX IMVI; read-out: TGI
  IC (TGI): 11.7 µM
M14; M14
  GI50: 3.85 µM
M14; M14, read-out: LC50
  CC50: 41.1 µM
M14; M14, read-out: TGI
  IC (TGI): 15.5 µM
SK-MEL-2; SK-MEL-2
  GI50: 11.2 µM
SK-MEL-2; SK-MEL-2, read-out: LC50
  CC50: 55.8 µM
SK-MEL-2; SK-MEL-2, read-out: TGI
  IC (TGI): 25.1 µM
SK-MEL-28; SK-MEL-28
  GI50: 3.83 µM
SK-MEL-28; SK-MEL-28, read-out: LC50
  CC50: 41 µM
SK-MEL-28; SK-MEL-28, read-out: TGI
  IC (TGI): 15.5 µM
SK-MEL-5; SK-MEL-5
  GI50: 10.6 µM
SK-MEL-5; SK-MEL-5, read-out: LC50
  CC50: 47.6 µM
SK-MEL-5; SK-MEL-5, read-out: TGI
  IC (TGI): 22.5 µM
SNB-75; SNB-75
  GI50: 2.59 µM
SNB-75; SNB-75, read-out: LC50
  CC50: 40.6 µM
SNB-75; SNB-75, read-out: TGI
  IC (TGI): 16.5 µM
HCT-116; HCT-116, HCT-116
  GI50: 2.07 µM
HCT-116; HCT-116, read-out: LC50
  CC50: 23.9 µM
HCT-116; HCT-116, read-out: TGI
  IC (TGI): 6.42 µM
SW-620; SW-620, SW-620
  GI50: 2.23 µM
SW-620; SW-620, read-out: LC50
  CC50: 37.3 µM
SW-620; SW-620, read-out: TGI
  IC (TGI): 8.74 µM
CAKI-1; CAKI-1
  GI50: 2.19 µM
CAKI-1; CAKI-1, read-out: LC50
  CC50: 34.5 µM
CAKI-1; CAKI-1, read-out: TGI
  IC (TGI): 11.9 µM
SN12C
  GI50: 8.41 µM
SN12C; read-out: LC50
  CC50: 55.2 µM
SN12C; read-out: TGI
  IC (TGI): 22.7 µM
UO-31; UO-31
  GI50: 2.36 µM
UO-31; UO-31, read-out: LC50
  CC50: 46.3 µM
UO-31; UO-31, read-out: TGI
  IC (TGI): 12.5 µM
MCF7; MCF7, MCF7
  GI50: 2.3 µM
MCF7; MCF7, read-out: LC50
  CC50: 50.8 µM
MCF7; MCF7, read-out: TGI
  IC (TGI): 10.7 µM
MDA-MB-231/ATCC; MDA-MB-231
  GI50: 3.73 µM
MDA-MB-231/ATCC; MDA-MB-231, read-out: LC50
  CC50: 49.4 µM
MDA-MB-231/ATCC; MDA-MB-231, read-out: TGI
  IC (TGI): 16.2 µM
T-47D
  GI50: 2.34 µM
T-47D; read-out: LC50
  CC50: 45.9 µM
T-47D; read-out: TGI
  IC (TGI): 8.12 µM
OVCAR-3; Homo sapiens, OVCAR-3
  GI50: 1.96 µM
OVCAR-3; Homo sapiens, OVCAR-3, read-out: LC50
  CC50: 22 µM
OVCAR-3; Homo sapiens, OVCAR-3, read-out: TGI
  IC (TGI): 5.88 µM
OVCAR-3; OVCAR-3, Log10 Concentration −4.0
  Percent Growth: −100%
OVCAR-3; OVCAR-3, Log10 Concentration −5.0
  Percent Growth: −24%
OVCAR-3; OVCAR-3, Log10 Concentration −6.0
  Percent Growth: 80%
OVCAR-3; OVCAR-3, Log10 Concentration −7.0
  Percent Growth: 96%
OVCAR-3; OVCAR-3, Log10 Concentration −8.0
  Percent Growth: 98%
NCI/ADR-RES
  GI50: 17.2 µM
NCI/ADR-RES; read-out: LC50
  CC50: > 100 µM
NCI/ADR-RES; read-out: TGI
  IC (TGI): 45.8 µM
PC-3; PC-3
  GI50: 12.7 µM
PC-3; PC-3, read-out: LC50
  CC50: 56.2 µM
PC-3; PC-3, read-out: TGI
  IC (TGI): 16.7 µM
A549/ATCC
  CC50: 67.2 µM
